Measurements published in US20260256792A1, “TREATMENT OF CHRONIC SPONTANEOUS URTICARIA BY ADMINISTERING (R)-2-[3-[4-AMINO-3-(2-FLUORO-4-PHENOXY-PHENYL)PYRAZOLO[3,4-D]PYRIMIDIN-1-YL]PIPERIDINE-1-CARBONYL]-4-METHYL-4-[4-(OXETAN-3-YL)PIPERAZIN-1-YL]PENT-2-ENENITRILE” (priority 2023, published 2026).

Test system: moderate-to-severe chronic spontaneous urticaria (CSU)
Experiment: Phase 2 CSU study: urticaria activity score over 7 days (UAS7)
Format: in vivo, human
Set-up: key to UAS7 Median / UAS7 Change from baseline Median / UAS7 change from baseline, Q1 / UAS7 change from baseline, Q3 / UAS7 change from baseline, Max / UAS7 Change from baseline LS Mean (SE): UAS7 points; daily UAS score ranges 0–6 points/day, over 7 days
From the text: The study comprises a 12 week, randomized, double-blind, placebo-controlled, multi-center, dose-ranging efficacy and safety phase, followed by a 40 week open label extension (OLE) phase (see FIG. 1). The study consists of three phases and an optional OLE phase. […] Clinically, CSU is characterized by the spontaneous and recurrent appearance of pruritic hives. The proposed primary endpoints were the UAS7 at Week 12 in EU and EU reference countries and the ISS7 in the US. Regardless of where a participant was from, all assessments were the same. The UAS7 score is a composite score containing both the HSS7 and the ISS7. This allowed a global assessment of the two key components of urticaria: hives and itch. […] The UAS is a validated PRO measure. […] The daily UAS scores range from 0 to 6 point/day. […] Patients were to complete the UAS using the e-diary. […] The following secondary endpoints were to be analyzed using the same approach as for the primary endpoint: • Change from baseline in UAS7 at Week 4 • Change from baseline in UAS7 at Week 12 (for US and US reference countries) • Change from baseline in ISS7 at Week 12 (except US and US reference countries) • Change from baseline in HSS7 at Week 12 The following responder secondary endpoints were to be analyzed using the Cochran-Mantel-Haenszel test adjusted by region: • Proportion of participants with UAS7<6 at Week 12 • Proportion of participants with UAS7=0 at Week 12 Participants who received selected prohibited medications and/or rescue medications were to be considered as non-responders for time points after the medication usage. For other participants, all available data including those collected during the off-treatment period were to be used to determine the responder/non-responder status. Missing data were to be considered as non-responders.

[1] = Week 2, 400 mg TID, ITT population
[2] = Week 2, 400 mg TID, Omalizumab-Naïve
[3] = Week 2, 400 mg TID, Prior Omalizumab Use
[4] = Week 2, 400 mg TID, omalizumab-naive participants
[5] = Week 3, 400 mg BID, ITT population
[6] = Week 3, 400 mg BID, Omalizumab-Naïve
[7] = Week 3, 400 mg BID, Prior Omalizumab Use
[8] = Week 3, 400 mg BID, omalizumab-naive participants
[9] = Week 3, 400 mg QPM, ITT population
[10] = Week 3, 400 mg QPM, Omalizumab-Naïve
[11] = Week 3, 400 mg QPM, Prior Omalizumab Use
[12] = Week 3, 400 mg QPM, omalizumab-naive participants
[13] = Week 3, 400 mg TID, ITT population
[14] = Week 3, 400 mg TID, Omalizumab-Naïve

For `CC(C)(C=C(C#N)C(=O)N1CCC[C@@H](n2nc(-c3ccc(Oc4ccccc4)cc3F)c3c(N)ncnc32)C1)N1CCN(C2COC2)CC1` [rilzabrutinib, (R)-2-[3-[4-amino-3-(2-fluoro-4-phenoxy-phenyl)pyrazolo[3,4-d]pyrimidin-1-yl]piperidine-1-carbonyl]-4-methyl-4-[4-(oxetan-3-yl)piperazin-1-yl]pent-2-enenitrile], the “OR for rilzabrutinib vs. placebo, UAS7 reduction of 10 points or more” value [1] was 5.982, the “RRD (%) for rilzabrutinib vs. placebo, UAS7 reduction of 10 points or more” value (shortened to “RRD (%) … UAS7 reduction of 10 points or more”) [1] was 40.6 % and the “Responder, UAS7 reduction from baseline of 10 points or more” value [1] was 28 (68.3) n (%). For the same compound, the “UAS7 Change from baseline Mean (SD)” value [2] was −13.69 (11.66), the “UAS7 Change from baseline Median” value [2] was −11.00 and the “UAS7 Mean (SD)” value [2] was 15.65 (10.66). For the same compound, the “UAS7 Median” value [2] was 14.00, the “UAS7 Percent change from baseline Mean (SD)” value (“UAS7 Percent change … (SD)” for short) [2] was −45.70 (36.18) % and the “UAS7 Percent change from baseline Median” value [2] was −46.67%. For the same compound, the “UAS7 Change from baseline Mean (SD)” value [3] was −24.69 (11.86), the “UAS7 Change from baseline Median” value [3] was −22.50 and the “UAS7 Mean (SD)” value [3] was 8.33 (9.77). For the same compound, the “UAS7 Median” value [3] was 5.50, the “UAS7 Percent change … (SD)” value [3] was −75.38 (23.12) % and the “UAS7 Percent change from baseline Median” value [3] was −73.96%. The “Non-responder, UAS7 reduction from baseline of 10 points or more” value (shortened to “Non-responder, UAS7 reduction”) [4] was 13 (37.1) n (%), the “OR for rilzabrutinib vs. placebo, UAS7 reduction of 10 points or more” value [4] was 5.505 and the “RRD (%) … UAS7 reduction of 10 points or more” value [4] was 39.0 %. For the same compound, the “Responder, UAS7 reduction from baseline of 10 points or more” value [4] was 22 (62.9) n (%), the “Non-responder, UAS7 reduction” value [5] was 20 (48.8) n (%) and the “OR for rilzabrutinib vs. placebo, UAS7 reduction of 10 points or more” value [5] was 2.109. For the same compound, the “RRD (%) … UAS7 reduction of 10 points or more” value [5] was 18.0 %, the “Responder, UAS7 reduction from baseline of 10 points or more” value [5] was 21 (51.2) n (%) and the “UAS7 Change from baseline Mean (SD)” value [6] was −12.02 (10.63). For the same compound, the “UAS7 Change from baseline Median” value [6] was −9.00, the “UAS7 Mean (SD)” value [6] was 17.71 (11.91) and the “UAS7 Median” value [6] was 16.80. For the same compound, the “UAS7 Percent change … (SD)” value [6] was −41.11 (35.05) %, the “UAS7 Percent change from baseline Median” value [6] was −32.14% and the “UAS7 Change from baseline Mean (SD)” value [7] was −15.81 (16.39). The “UAS7 Change from baseline Median” value [7] was −15.00, the “UAS7 Mean (SD)” value [7] was 17.19 (13.86) and the “UAS7 Median” value [7] was 18.58. The “UAS7 Percent change … (SD)” value [7] was −44.47 (44.78) %, the “UAS7 Percent change from baseline Median” value [7] was −41.73% and the “Non-responder, UAS7 reduction” value [8] was 18 (51.4) n (%). For the same compound, the “OR for rilzabrutinib vs. placebo, UAS7 reduction of 10 points or more” value [8] was 2.057, the “RRD (%) … UAS7 reduction of 10 points or more” value [8] was 17.2 % and the “Responder, UAS7 reduction from baseline of 10 points or more” value [8] was 17 (48.6) n (%). The “Non-responder, UAS7 reduction” value [9] was 22 (57.9) n (%), the “OR for rilzabrutinib vs. placebo, UAS7 reduction of 10 points or more” value [9] was 1.663 and the “RRD (%) … UAS7 reduction of 10 points or more” value [9] was 11.7 %. For the same compound, the “Responder, UAS7 reduction from baseline of 10 points or more” value [9] was 16 (42.1) n (%), the “UAS7 Change from baseline Mean (SD)” value [10] was −9.10 (8.78) and the “UAS7 Change from baseline Median” value [10] was −7.00. For the same compound, the “UAS7 Mean (SD)” value [10] was 22.01 (9.00), the “UAS7 Median” value [10] was 22.00 and the “UAS7 Percent change … (SD)” value [10] was −28.09 (25.63) %. For the same compound, the “UAS7 Percent change from baseline Median” value [10] was −26.67%, the “UAS7 Change from baseline Mean (SD)” value [11] was −22.00 (NC) and the “UAS7 Change from baseline Median” value [11] was −22.00. For the same compound, the “UAS7 Mean (SD)” value [11] was 19.00 (NC), the “UAS7 Median” value [11] was 19.00 and the “UAS7 Percent change … (SD)” value [11] was −53.66 (NC) %. The “UAS7 Percent change from baseline Median” value [11] was −53.66%, the “Non-responder, UAS7 reduction” value [12] was 22 (59.5) n (%) and the “OR for rilzabrutinib vs. placebo, UAS7 reduction of 10 points or more” value [12] was 1.665. The “RRD (%) … UAS7 reduction of 10 points or more” value [12] was 11.4 %, the “Responder, UAS7 reduction from baseline of 10 points or more” value [12] was 15 (40.5) n (%) and the “Non-responder, UAS7 reduction” value [13] was 14 (34.1) n (%). For the same compound, the “OR for rilzabrutinib vs. placebo, UAS7 reduction of 10 points or more” value [13] was 3.444, the “RRD (%) … UAS7 reduction of 10 points or more” value [13] was 31.4 % and the “Responder, UAS7 reduction from baseline of 10 points or more” value [13] was 27 (65.9) n (%). The “UAS7 Change from baseline Mean (SD)” value [14] was −13.97 (12.14), the “UAS7 Change from baseline Median” value [14] was −14.00 and the “UAS7 Mean (SD)” value [14] was 15.37 (9.87). The “UAS7 Median” value [14] was 14.00.
